Series [1] deals with T1, hBACE-1 (Homo sapiens, UniProt P56817). Put plainly: biochemical.
The target of the next series is eqBChE (Equus caballus, UniProt P81908). Put plainly: BChE inhibition and enzyme kinetics, Ellman assay. It counts as biochemical, equine. (DTNB colorimetry detects thiols as they appear.)
For the next series, the target named is EeAChE (Electrophorus electricus, UniProt O42275). Description: AChE inhibition and enzyme kinetics, Ellman assay. The series is classed as biochemical, electric eel. The conditions noted are these: for IC50: IC50 (μM) ± SD EeAChE, Ellman assay.
Sequence of EeAChE (O42275 24-633): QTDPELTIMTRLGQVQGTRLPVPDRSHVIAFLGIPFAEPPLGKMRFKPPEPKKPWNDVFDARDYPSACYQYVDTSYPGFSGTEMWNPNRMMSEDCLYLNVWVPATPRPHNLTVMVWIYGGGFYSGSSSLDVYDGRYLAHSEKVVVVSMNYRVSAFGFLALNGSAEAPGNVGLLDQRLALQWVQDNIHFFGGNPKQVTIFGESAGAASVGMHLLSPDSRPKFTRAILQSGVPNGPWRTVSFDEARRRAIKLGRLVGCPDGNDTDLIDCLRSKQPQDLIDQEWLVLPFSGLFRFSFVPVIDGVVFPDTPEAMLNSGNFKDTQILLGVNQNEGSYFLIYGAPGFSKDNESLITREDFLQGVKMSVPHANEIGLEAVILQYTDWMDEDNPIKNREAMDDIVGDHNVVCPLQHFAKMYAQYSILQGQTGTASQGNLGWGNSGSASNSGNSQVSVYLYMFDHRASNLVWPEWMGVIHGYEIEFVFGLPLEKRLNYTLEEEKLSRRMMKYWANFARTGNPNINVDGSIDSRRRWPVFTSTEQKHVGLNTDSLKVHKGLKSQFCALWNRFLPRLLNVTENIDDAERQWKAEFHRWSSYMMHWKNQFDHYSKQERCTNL
For series [2] the following is noted: PAMPA–BBB.
The target in series [3] is T1, hBACE-1. The conditions noted are these: Lineweaver–Burk double-reciprocal plot.
The next series addresses amyloid β 1–42 peptide (Homo sapiens, UniProt P05067). Description: Aβ-42 self-aggregation inhibition assay. The series is classed as biochemical. The conditions noted are these: read-out: inhibition of self-aggregation of Aβ1–42 monomers.
The next series can be described thus: in vitro. The conditions noted are these: pig, PAMPA, pH 7.4. (The PAMPA barrier holds no transporters, so it reflects passive diffusion.)
Setting [4] is: Lineweaver–Burk double-reciprocal plot.

Structures are written as SMILES. Where “and” joins values, the source holds several entries; their conditions need not be identical. Equal values may be shown once.

What is called IC50 is the midpoint of a concentration-inhibition curve. Higher therefore signals a need for much substance. The term Ki denotes a dissociation constant, usually derived from enzyme kinetics or from competition with a known ligand. A low value points to a stronger hold on the target. As usually defined, the inhibition is the change of the read-out against control, counted positive when it falls. As a reminder, the Papp is a coefficient for how fast a substance crosses the barrier.

Sequence of eqBChE (P81908 whole entry): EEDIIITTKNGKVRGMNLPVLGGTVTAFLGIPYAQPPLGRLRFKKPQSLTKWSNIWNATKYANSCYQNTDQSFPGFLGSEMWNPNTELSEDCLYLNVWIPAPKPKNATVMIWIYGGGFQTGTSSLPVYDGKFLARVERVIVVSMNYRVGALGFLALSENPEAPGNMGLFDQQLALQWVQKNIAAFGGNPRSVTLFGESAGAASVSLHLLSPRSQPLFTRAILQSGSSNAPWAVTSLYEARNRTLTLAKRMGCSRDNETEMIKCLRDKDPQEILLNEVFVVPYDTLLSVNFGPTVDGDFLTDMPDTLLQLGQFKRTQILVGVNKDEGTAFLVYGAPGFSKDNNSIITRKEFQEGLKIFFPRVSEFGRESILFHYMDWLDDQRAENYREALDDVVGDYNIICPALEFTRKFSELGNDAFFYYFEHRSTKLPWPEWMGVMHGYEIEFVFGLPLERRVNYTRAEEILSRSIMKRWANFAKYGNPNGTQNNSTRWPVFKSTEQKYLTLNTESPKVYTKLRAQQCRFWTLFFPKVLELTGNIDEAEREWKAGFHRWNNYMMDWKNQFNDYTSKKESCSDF
T1 sequence (P56817 46-501): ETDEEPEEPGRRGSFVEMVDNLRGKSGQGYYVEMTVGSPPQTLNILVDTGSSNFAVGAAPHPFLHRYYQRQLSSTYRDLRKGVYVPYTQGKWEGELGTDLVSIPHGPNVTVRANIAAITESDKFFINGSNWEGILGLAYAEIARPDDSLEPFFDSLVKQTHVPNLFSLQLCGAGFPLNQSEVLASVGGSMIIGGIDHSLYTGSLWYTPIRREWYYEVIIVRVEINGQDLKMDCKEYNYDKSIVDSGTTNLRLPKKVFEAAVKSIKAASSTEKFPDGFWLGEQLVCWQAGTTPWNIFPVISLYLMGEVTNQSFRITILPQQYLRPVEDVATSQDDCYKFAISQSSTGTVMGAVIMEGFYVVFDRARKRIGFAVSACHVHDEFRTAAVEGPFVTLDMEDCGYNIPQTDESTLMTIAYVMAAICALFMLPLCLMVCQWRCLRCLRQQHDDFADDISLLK
Sequence of amyloid β 1–42 peptide (P05067 672-713): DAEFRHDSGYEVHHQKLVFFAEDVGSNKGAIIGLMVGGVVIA

Take `O=c1cc(OCc2cn(Cc3ccc(OC(F)(F)F)cc3)nn2)c2ccccc2o1` [8l, 4-((1-(4-(Trifluoromethoxy)benzyl)-1H-1,2,3-triazol-4-yl)methoxy)-2H-chromen-2-one]: the figures for the IC50 against hBACE-1 [1], against eqBChE and at EeAChE were 132.9 ± 1.08 µM, 158 ± 1.98 µM and 45.4 ± 1.4 µM, respectively.
Take `Cc1ccccc1Cn1cc(COc2cc(=O)oc3ccccc23)nn1` [8m, 4-((1-(2-Methylbenzyl)-1H-1,2,3-triazol-4-yl)methoxy)-2H-chromen-2-one]: the IC50 turned out to be 162 ± 1.85 µM against hBACE-1 [1], 172 ± 1.98 µM against eqBChE and 210.7 ± 1.83 µM at EeAChE.
Regarding `COc1cccc(Cn2cc(COc3cc(=O)oc4ccccc34)nn2)c1` [8n, 4-((1-(3-Methoxybenzyl)-1H-1,2,3-triazol-4-yl)methoxy)-2H-chromen-2-one], the IC50 against hBACE-1 [1] came to 126 ± 4.18 µM; against eqBChE, 140 ± 6.25 µM; against EeAChE, 11.4 ± 1.16 µM.
For `COc1cc(Cn2cc(COc3cc(=O)oc4ccccc34)nn2)cc(OC)c1` [8o, 4-((1-(3,5-Dimethoxybenzyl)-1H-1,2,3-triazol-4-yl)methoxy)-2H-chromen-2-one], the IC50 against hBACE-1 [1] came out at 9.79 ± 1.36 µM; against eqBChE it was 3.3 ± 0.01 µM; at EeAChE, 2.76 ± 0.04 µM.
Regarding `O=c1cc(OCc2cn(Cc3ccc([N+](=O)[O-])cc3)nn2)c2ccccc2o1` [8p, 4-((1-(4-Nitrobenzyl)-1H-1,2,3-triazol-4-yl)methoxy)-2H-chromen-2-one], the IC50 against hBACE-1 [1] stood at 156 ± 1.09 µM; against eqBChE it was 220 ± 3.04 µM; on EeAChE, 200.4 ± 0.85 µM.
On to `COc1cccc(Cn2cc(COc3ccc4ccc(=O)oc4c3C(C)=O)nn2)c1` [10a, 8-Acetyl-7-((1-(3-methoxybenzyl)-1H-1,2,3-triazol-4-yl)methoxy)-2H-chromen-2-one], for which the IC50 against hBACE-1 [1] stood at 119 ± 2.49 µM; at eqBChE, 7.4 ± 0.94 µM; against EeAChE it was 8.36 ± 1.29 µM.
For the molecule `COc1cc(Cn2cc(COc3ccc4ccc(=O)oc4c3C(C)=O)nn2)cc(OC)c1` [10b, 8-Acetyl-7-((1-(3,5-dimethoxybenzyl)-1H-1,2,3-triazol-4-yl)methoxy)-2H-chromen-2-one], in series [2], the “prediction of CNS permeation” value is “CNS+”. Also, the figures for the Ki at hBACE-1 [1], at eqBChE and at EeAChE were 7 µM, 3.5 µM and 0.27 µM, respectively. Also, the IC50 against eqBChE was 3.26 ± 0.13 µM; on EeAChE, 2.57 ± 0.31 µM. The “mode of inhibition, BChE” value on eqBChE (setting [4]) is “mixed type”. Moreover, on hBACE-1 [3], the “mode of inhibition, BACE-1” value is reported as “mixed type”. Besides, the inhibition at 10 µM on amyloid β 1–42 peptide was 37%. The molecule also yielded a Papp in “in vitro” of 5.68 ± 1.1 ×10⁻⁶ cm/s. Also, the “fold difference in AChE inhibition activity of 10b vs 19b” value on EeAChE (10b vs 19b) amounted to 20 fold. In addition, the “mode of inhibition, AChE” value on EeAChE (setting [4]) is “noncompetitive”.
As to `CC(=O)c1c(OCc2cn(Cc3ccccc3C(F)(F)F)nn2)ccc2ccc(=O)oc12` [10c, 8-Acetyl-7-((1-(2-(trifluoromethyl)benzyl)-1H-1,2,3-triazol-4-yl)methoxy)-2H-chromen-2-one], the IC50 against hBACE-1 [1] worked out at 139 ± 1.47 µM; on eqBChE it was 44.6 ± 1.84 µM; on EeAChE it was 173 ± 1.89 µM.
Take `CC(=O)c1c(OCc2cn(Cc3ccccc3OC(F)(F)F)nn2)ccc2ccc(=O)oc12` [10d, 8-Acetyl-7-((1-(2-(trifluoromethoxy)benzyl)-1H-1,2,3-triazol-4-yl)methoxy)-2H-chromen-2-one]: the IC50 against hBACE-1 [1] was determined as 142 ± 1.59 µM; against eqBChE, 170 ± 1.76 µM; at EeAChE, 139 ± 1.64 µM.
With `COc1cccc(Cn2cc(COc3cc4oc(=O)cc(C)c4cc3OCc3cn(Cc4cccc(OC)c4)nn3)nn2)c1` [13a, 6,7-Bis((1-(3-methoxybenzyl)-1H-1,2,3-triazol-4-yl)methoxy)-4-methyl-2H-chromen-2-one], the 50% inhibitory concentration (IC50) came out at 129 ± 1.49 µM at hBACE-1 [1], 51.7 ± 1.42 µM against eqBChE and 130.7 ± 0.45 µM at EeAChE.
Regarding `COc1cc(Cn2cc(COc3cc4oc(=O)cc(C)c4cc3OCc3cn(Cc4cc(OC)cc(OC)c4)nn3)nn2)cc(OC)c1` [13b, 6,7-Bis((1-(3,5-dimethoxybenzyl)-1H-1,2,3-triazol-4-yl)methoxy)-4-methyl-2H-chromen-2-one], the results for the IC50 against hBACE-1 [1], against eqBChE and against EeAChE were 115 ± 3.86 µM, 4.7 ± 0.67 µM and 168 ± 6.7 µM, respectively.
`Cc1cc(=O)oc2cc(OCc3cn(Cc4ccccc4C(F)(F)F)nn3)c(OCc3cn(Cc4ccccc4C(F)(F)F)nn3)cc12` [13c, 4-Methyl-6,7-bis((1-(2-(trifluoromethyl)benzyl)-1H-1,2,3-triazol-4-yl)methoxy)-2H-chromen-2-one]: the IC50 against hBACE-1 [1] came to 139.4 ± 1 µM; on eqBChE, 82.5 ± 1.41 µM; at EeAChE it was 154.7 ± 1.42 µM.
Turning to `COc1cccc(Cn2cc(COc3cc4oc(=O)cc(C)c4cc3OC)nn2)c1` [16a, 6-Methoxy-7-((1-(3-methoxybenzyl)-1H-1,2,3-triazol-4-yl)methoxy)-4-methyl-2H-chromen-2-one], the IC50 against hBACE-1 [1] was 138.4 ± 1.02 µM; against eqBChE, 95.8 ± 1.12 µM; at EeAChE, 164 ± 1.84 µM.
`COc1cc(Cn2cc(COc3cc4oc(=O)cc(C)c4cc3OC)nn2)cc(OC)c1` [16b, 7-((1-(3,5-Dimethoxybenzyl)-1H-1,2,3-triazol-4-yl)methoxy)-6-methoxy-4-methyl-2H-chromen-2-one]: the IC50 against hBACE-1 [1] turned out to be 9.06 ± 0.88 µM; on eqBChE, 191.2 ± 1.13 µM; on EeAChE, 151 ± 5.05 µM.
Take `COc1cc2c(C)cc(=O)oc2cc1OCc1cn(Cc2ccccc2C(F)(F)F)nn1` [16c, 6-Methoxy-4-methyl-7-((1-(2-(trifluoromethyl)benzyl)-1H-1,2,3-triazol-4-yl)methoxy)-2H-chromen-2-one]: the figures for the IC50 on hBACE-1 [1], against eqBChE and on EeAChE were 156.1 ± 1.42 µM, 57.5 ± 1.42 µM and 141.7 ± 0.89 µM, respectively.
On to `COc1cc2c(C)cc(=O)oc2cc1OCc1cn(Cc2ccccc2OC(F)(F)F)nn1` [16d, 6-Methoxy-4-methyl-7-((1-(2-(trifluoromethoxy)benzyl)-1H-1,2,3-triazol-4-yl)methoxy)-2H-chromen-2-one], for which the IC50 against hBACE-1 [1] was determined as 167.6 ± 1.4 µM; against eqBChE, 141 ± 0.6 µM; on EeAChE, 167 ± 2.45 µM.
Turning to `COc1cccc(Cn2cc(COc3ccc4ccc(=O)oc4c3)nn2)c1` [19a, 7-((1-(3-Methoxybenzyl)-1H-1,2,3-triazol-4-yl)methoxy)-2H-chromen-2-one], the IC50 on hBACE-1 [1] was 126 ± 3.92 µM; against eqBChE, 2.8 ± 0.22 µM; against EeAChE it was 3.6 µM and 3.62 µM.
Regarding `COc1cc(Cn2cc(COc3ccc4ccc(=O)oc4c3)nn2)cc(OC)c1` [19b, 7-((1-(3,5-Dimethoxybenzyl)-1H-1,2,3-triazol-4-yl)methoxy)-2H-chromen-2-one], the IC50 turned out to be 132 ± 2.02 µM on hBACE-1 [1], 63.2 ± 2.44 µM against eqBChE and 59.7 ± 0.62 µM against EeAChE.
For the molecule `O=c1ccc2ccc(OCc3cn(Cc4ccccc4C(F)(F)F)nn3)cc2o1` [19c, 7-((1-(2-(Trifluoromethyl)benzyl)-1H-1,2,3-triazol-4-yl)methoxy)-2H-chromen-2-one], the IC50 was 17.7 ± 0.65 µM against hBACE-1 [1], 77.3 ± 6.38 µM at eqBChE and 20.6 ± 0.95 µM at EeAChE.
On the same counts, the results for `O=c1ccc2ccc(OCc3cn(Cc4ccccc4OC(F)(F)F)nn3)cc2o1` [19d, 7-((1-(2-(Trifluoromethoxy)benzyl)-1H-1,2,3-triazol-4-yl)methoxy)-2H-chromen-2-one] are 172.8 ± 0.66 µM, 97.2 ± 1.29 µM and 52.54 ± 0.4 µM.
Take `O=c1cc(O)c2ccccc2o1` [compound 5, 4-hydroxycoumarin]: the figures for the IC50 at hBACE-1 [1], against eqBChE and at EeAChE were 169 ± 7.67 µM, 167 ± 5.63 µM and 139 ± 1.85 µM, respectively.
With `Cc1cc(=O)oc2cc(O)c(O)cc12` [compound 11, 4-methyl-6,7-dihydroxycoumarin], the IC50 against hBACE-1 [1] worked out at 105 ± 3.48 µM; on eqBChE, 148 ± 5.46 µM; against EeAChE, 68.1 ± 4.05 µM.
`COc1cc2c(C)cc(=O)oc2cc1O` [compound 14, 7-Hydroxy-6-methoxy-4-methyl-2H-chromen-2-one]: the IC50 against hBACE-1 [1] came to 91.1 ± 2.41 µM; against eqBChE it was 146 ± 4.91 µM; on EeAChE, 89.1 ± 3.51 µM.
With `COc1cc(/C=C/C(=O)CC(=O)/C=C/c2ccc(O)c(OC)c2)ccc1O` [curcumin, reference compound], on amyloid β 1–42 peptide, the inhibition at 10 µM came to 81%.

The values above are taken from article PMC10061512 (ACS Omega, 2023).
